{"source": "patent US10105414B2", "about": "“Peptides derived from RS1 which down-regulate glucose absorption after a glucose rich meal and increase insulin sensitivity” (Julius-Maximilians-Universität Würzburg, priority 2014, dated 2018)", "molecules": {"B1": {"name": "hRS1-Reg: regulatory domain of RS1 from human comprising amino acids 16-98 of hRS1 (SEQ ID No. 6) (protein, listed as Homo sapiens)", "chain": "SSGQSPDVGNPMSLARSVSASVCPIKPSDSDRIEPKAVKALKASAEFQLNSEKKEHLSLQDLSDHASSADHAPTDQSPAMPMQ"}}, "key": {"mSGLT1 [1]": {"test_system": "mSGLT1", "procedure": "(§1) Standardised t areas of human small intestinal mucosa (FIGS. 13,19) or 1 cm segments of everted mouse small intestine (FIGS. 14,15,20) were washed three times at 37° C. with Krebs-Ringer buffer containing 5 mM D-glucose and incubated for 30 min at 37° C. in Krebs-Ringer buffer containing 5 mM D-glucose plus different concentrations of tripeptides. Thereafter the tissue was washed three times at 0° C. in Krebs-Ringer buffer without glucose and uptake measurements were performed.\n(§2) For measurement of SGLT1 mediated glucose uptake, the everted segments of mouse small intestine or defined areas of human mucosa were incubated for 2 min at 37° C. with Krebs-Ringer buffer containing 10 μM [^14C]AMG with or without 0.2 mM phlorizin. Uptake was stopped by transferring the segments into ice cold Krebs-Ringer buffer containing 0.2 mM phlorizin for 5 min. After washing with ice cold Krebs-Ringer buffer the intestinal segments or pieces of human mucosa were dissolved in 0.5 ml Soluence-350) (Perkin Elmer Inc. Waltham Mass., USA). Radioactivity was analysed by liquid scintillation counting. Phlorizin inhibited AMG uptake per cm length or per standard area of the mucosa was calculated.\nThereafter the segments were washed with PBS buffer and phlorizin inhibited uptake of 10 μM [^14C]AMG was measured."}, "mSGLT1 [2]": {"test_system": "mSGLT1", "details": "RS1−/− mice starved over night; gavage 20 μmol per mouse; after 2 h", "procedure": "as §2\n(§3) After 2 h the animals were killed, their small intestines were everted and phlorizin inhibited uptake of 10 μM [^14C]AMG Into segments of the everted jejunum was measured (FIG. 12A)."}, "ODC [3]": {"molecular_target": "T1, ODC (Homo sapiens, UniProt P11926)", "T1 sequence (P11926 1-461)": "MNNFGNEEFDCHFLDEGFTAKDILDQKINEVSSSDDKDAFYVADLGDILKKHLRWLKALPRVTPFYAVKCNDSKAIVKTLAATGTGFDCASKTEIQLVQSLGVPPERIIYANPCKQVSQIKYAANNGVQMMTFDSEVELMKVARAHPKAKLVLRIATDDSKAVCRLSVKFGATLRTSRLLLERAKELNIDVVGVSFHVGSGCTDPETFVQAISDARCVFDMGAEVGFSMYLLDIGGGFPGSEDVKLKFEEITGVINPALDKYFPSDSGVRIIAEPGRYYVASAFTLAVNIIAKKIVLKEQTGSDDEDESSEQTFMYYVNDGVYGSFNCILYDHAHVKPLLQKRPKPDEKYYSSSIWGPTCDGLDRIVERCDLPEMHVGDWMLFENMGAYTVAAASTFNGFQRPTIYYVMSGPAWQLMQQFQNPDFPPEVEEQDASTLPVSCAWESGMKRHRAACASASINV", "assay": "Activity of purified ODC (released CO2)", "type": "biochemical", "details": "100 μM tripeptide, 80 ng purified ODC, 1 h, 37° C."}, "hCNT1": {"test_system": "hCNT1", "assay": "hCNT1-mediated uridine uptake in Xenopus laevis oocytes after injection of peptides", "type": "cell-based, human", "details": "for uptake of 5 μM [3H]uridine expressed by hCNT1: low intracellular glucose, no AMG injected", "procedure": "(§4) Selected oocytes were injected with 50 nl of water containing cRNAs (2.5 ng of hSGLT1 or 0.5 ng of hCNT1). For expression oocytes were incubated for 2-3 days at 16° C. in modified Barth's solution with gentamycin. Noninjected control oocytes were incubated in parallel.\n(§5) Before uptake measurements were started, 50 nl of K-Ori buffer containing peptides, polypeptides, 1 pM of calmodulin stimulated kinase 2 (CK2) inhibitor KN93 (Calbiochem San Diego. Calif.), 3 mM of the omithinedecarboxlase inhibitor difluoromethylornithine DFMO and/or or 100 pmol α-methyl-α-D-glucopyranoside (AMG) were injected and the oocytes were incubated for 1 h at room temperature. Uptake was measured in Ori buffer at room temperature. Measurements in transporter expressing oocytes were corrected for measurements in noninjected oocytes. Uptake of 50 μM [^14C]AMG was measured after 15 min incubation and washing in ice-cold Ori buffer containing 1 mM phlorizin. Uptake of 5 μM [^3H]uridine was measured after 15 min incubation and washing in ice-cold Ori buffer. Oocytes were solubilized in 5% (w/v) SDS and analyzed for radioactivity by scintillation counting.\n(§6) For comparison of mean values from 2 groups the Student's t-test for unpaired samples was employed."}, "hSGLT1 [4]": {"test_system": "hSGLT1", "details": "30 min; for down-regulation of hSGLT1 mediated AMG uptake: 5 mM D-glucose", "procedure": "Jejunal segments which were routinely dissected during bariatric operations of highly obese patients were stored for 1-3 h on ice in Dulbecco's modified Eagle's medium containing 5 mM D-glucose. The mucosa was isolated and circular areas of the mucosa were dissected using a punching instrument.\nas §1, §2\nNext, it was investigated which of the QXP-type tripeptides are capable to downregulate hSGLT1 expression in human small intestine in the presence of high glucose. Jejunal samples that were obtained during bariatric surgery of obese patients (males and females with a mean age of 50 years with a mean body mass index of 50) were used. […] A part of the jejumum which is routinely removed during bariatric surgery, was carried to the laboratory using ice-cold culture medium containing 6 mM D-glucose. Part of the mucosa was dissected and identical areas of the mucosa were isolated using a punching instrument. The mucosal pieces were washed with glucose free buffer and incubated for 30 min at 37° C. in tissue culture medium (pH 6.4) containing 5 mM D-glucose and different QXP-type tripeptides. Thereafter the sample were washed two times with PBS buffer (pH 7.4, 37° C.) and incubated for 2 min at 37° C. in PBS (pH 7.4) containing 100 mM sodium and 10 μM [^14C]AMG. The incubation was performed in the absence and presence of 200 μM of the SGLT1 inhibitor phlorizin. Thereafter the samples were washed with ice-cold PBS, the tissue was dissolved, and radioactivity was determined by liquid scintillation counting. The phorizin inhibited AMG uptake was calculated."}, "hSGLT1 [5]": {"test_system": "hSGLT1", "assay": "hSGLT1-mediated AMG uptake in Xenopus laevis oocytes 1 h after injection of peptides", "type": "cell-based, human", "details": "for down-regulation of hSGLT1 when putrescine was added: intracellular concentration 1 μM", "procedure": "as §4, §5, §6"}, "[6]": {"details": "RS1−/− mice; gavage 20 μmol QEP before 40% D-glucose gavage", "procedure": "Blood (2 μL) was collected from the tail vein and analysed using the amperometric glucose oxidase method (glucose meter, ACCU-CHEK Aviva). Blood insulin-Insulin was determined using the rat C-peptide ELISA from Mercodia (Uppsala, Sweden) which is based on the sandwich technique using two monoclonal antibodies directed against two different antigenic determinants on the C-peptide.\nas §3"}, "hCNT3": {"test_system": "hCNT3", "assay": "hCNT3-mediated uridine uptake in Xenopus laevis oocytes after injection of peptides", "type": "cell-based, human", "details": "low intracellular glucose, no AMG injected", "procedure": "FIG. 9. […] Posttransciptional downregulation of hCNT1 and hCNT3 was measured without injection of AMG. […] One hour later uptake of 5 μM [^3H]uridine was measured.\nas §5"}, "ODC [7]": {"molecular_target": "T1, ODC", "assay": "Two-hybrid screening and immunocoprecipitation", "type": "binding", "details": "data not shown", "procedure": "(§7) Employing two-hybrid screening and immunocoprecipitation experiments evidence was provided that hRS1-Reg binds to ODC (data not shown). It was shown that the release of SGLT1 containing vesicles from the Golgi apparatus was blocked by specific ODC Inhibitor difluoromethylornithine (DFMO) and that the DFMO effect was blunted when putrescine was added (FIG. 23A). Since hRS1-Reg and DFMO down-regulate hSGLT1 to a similar degree and the down-regulations were not additive, RS1-Reg and ODC employ the same pathway for down-regulation of hSGLT1."}, "ODC [8]": {"molecular_target": "T1, ODC", "assay": "ODC activity (released CO2) in HEK293 cells transfected with ODC", "type": "cell-based", "set-up": "expressed in transfected cells; host or cells: HEK293", "procedure": "FIG. 23. […] Expressed uptake of 25 μM [^14C]AMG was measured 1 h later as FIG. 2. In A-C mean value±SE of 24-30 oocytes from three independent experiments are presented. D) HEK293 cells were transiently transfected with ODC, ODC plus hRS1-Reg or with ODC plus control vector. […] In D and E mean values±SE from 3-5 independent experiments are indicated. ***P<0.001 for difference to controls measured by ANOVA with posthoc Tukey comparison.\nas §7"}, "[9]": {"details": "without injection of AMG (intracellular AMG <10 μM)"}}, "note": "Where two headings read alike, the source gives them in different places."}
{"molecule": "glutamine-glutamic acid-proline [QEP]", "values": [{"measurement": "effect on SGLT1 mediated AMG uptake, first series of experiments", "setting": "mSGLT1 [1]", "value": "no effect"}, {"measurement": "decrease of phlorizin inhibited uptake of 10 μM [14C]AMG into everted jejunum", "setting": "mSGLT1 [2]", "value": "about 30%"}, {"measurement": "insulin sensitivity", "setting": "NZO mice, 5 mM QEP in drinking water", "value": "increased"}, {"measurement": "SGLT1-mediated AMG transport into enterocytes and glucose absorption during an OGTT", "setting": "mouse, in vivo", "value": "not decreased"}, {"measurement": "decrease of basal concentration of insulin in the serum", "setting": "mouse, in vivo", "value": 50, "unit": "%"}, {"measurement": "increase and decrease of serum glucose after gavage with glucose", "setting": "mouse, in vivo", "value": "no effect"}, {"measurement": "increase of serum insulin after gavage with glucose", "setting": "mouse, in vivo", "value": "decreased"}, {"measurement": "inhibition of ODC activity", "setting": "ODC [3]", "value": "about 40%"}, {"measurement": "uptake of 5 μM [3H]uridine expressed by hCNT1", "setting": "hCNT1", "value": "not able to inhibit"}, {"measurement": "down-regulation of hSGLT1 mediated AMG uptake", "setting": "hSGLT1 [4]; 0.1 mM", "value": "not statistically significant"}, {"measurement": "down-regulation of hSGLT1 mediated AMG uptake", "setting": "hSGLT1 [4]; 0.5 mM", "value": "not statistically significant"}, {"measurement": "down-regulation of hSGLT1 mediated AMG uptake", "setting": "hSGLT1 [4]; 1 mM", "value": 40, "unit": "%"}, {"measurement": "SGLT1 mediated AMG uptake at low intracellular glucose", "setting": "hSGLT1 [4]; 5 mM QEP in PBS without glucose, data not shown", "value": "did not decrease"}, {"measurement": "down-regulation of hSGLT1 mediated AMG uptake", "setting": "hSGLT1 [4]; 15 mM", "value": 75, "unit": "%"}, {"measurement": "affinity at high intracellular glucose higher than affinity of QSP at low intracellular glucose", "setting": "hSGLT1 [5]", "value": "about 1000 times"}, {"measurement": "degree of down-regulation of hSGLT1", "setting": "hSGLT1 [5]; 5 pM, intracellular AMG ~0.25 mM", "value": "~45", "unit": "%"}, {"measurement": "inhibition of SGLT1 mediated transport", "setting": "hSGLT1 [5]; 50 nM tripeptide, no AMG injected", "value": "inhibition"}, {"measurement": "increase of affinity (decrease of IC50) for down-regulation of hSGLT1 at high versus low intracellular AMG", "setting": "hSGLT1 [5]; intracellular AMG ~250 μM versus low", "value": "more than 15000 fold"}, {"measurement": "down-regulation of hSGLT1 when putrescine was added", "setting": "hSGLT1 [5]", "value": "blunted"}, {"measurement": "inhibition of SGLT1 expression", "setting": "hSGLT1 [5]; with injection of AMG (intracellular AMG ~0.25 mM)", "value": "about 50%"}, {"measurement": "down-regulation / inhibition of hSGLT1-mediated AMG uptake", "setting": "hSGLT1 [5]; [9]", "value": "about 40%"}, {"measurement": "IC50", "setting": "hSGLT1 [5]; without injection of AMG (intracellular AMG <10 μM), read-out: IC50 for down-regulation of hSGLT1-mediated AMG uptake", "value": 7.9, "unit": "nM"}, {"measurement": "plasma D-glucose 15 min after glucose gavage", "setting": "[6]", "value": "significantly reduced"}, {"measurement": "uptake of 5 μM [3H]uridine expressed by hCNT3", "setting": "hCNT3", "value": "not able to inhibit"}]}
{"molecule": "B1", "values": [{"measurement": "binding to ODC", "setting": "ODC [7]", "value": "binds to ODC"}, {"measurement": "effect of 250 μM intracellular AMG on affinity for down-regulation of hCNT1", "setting": "hCNT1; intracellular AMG 250 μM", "value": "not altered"}, {"measurement": "uptake of 5 μM [3H]uridine expressed by hCNT1", "setting": "hCNT1", "value": "decreased"}, {"measurement": "down-regulation of hCNT1", "setting": "hCNT1; without injection of AMG", "value": "about 50%"}, {"measurement": "IC50", "setting": "hCNT1; without injection of AMG, read-out: IC50 for down-regulation of hCNT1-mediated uridine uptake", "value": "126 ± 6", "unit": "nM"}, {"measurement": "ODC activity when hRS1-Reg was coexpressed", "setting": "ODC [8]", "value": "decreased"}, {"measurement": "down-regulation of hSGLT1 by hRS1-Reg together with DFMO", "setting": "hSGLT1 [5]; DFMO intracellular concentration 3 mM", "value": "not additive"}, {"measurement": "affinity for down-regulation of hSGLT1 when CK2 is blocked by inhibitor KN93", "setting": "hSGLT1 [5]; co-injected KN93, no AMG injected", "value": "largely increased"}, {"measurement": "effect of intracellular AMG on the affinity for down-regulation of hSGLT1 after inhibition of CK2", "setting": "hSGLT1 [5]; co-injected KN93, with AMG", "value": "drastically decreased"}, {"measurement": "down-regulation of hSGLT1 when putrescine was added", "setting": "hSGLT1 [5]", "value": "blunted"}, {"measurement": "down-regulation / inhibition of hSGLT1-mediated AMG uptake", "setting": "hSGLT1 [5]; [9]", "value": "about 50%"}, {"measurement": "uptake of 5 μM [3H]uridine expressed by hCNT3", "setting": "hCNT3", "value": "decreased"}]}
